The text below walks through data of patent US9212138B2, “Use of derivatives of indoles for the treatment of cancer” (CENTRE NATIONAL DE LA RECHERCHE SCIENTIFIQUE, priority 2009, dated 2015).

The first assay concerns the target T1, MKLP-2 (RabK6) (Homo sapiens, UniProt O95235, S2A).
T1 construct: Expression clones for MKLP-21-519 (coding for residues 1 to 519) were obtained as follows; His-tag; made in house; host or cells: E. coli BL21(DE3)
T1 sequence (O95235 1-519 S2A limits assumed): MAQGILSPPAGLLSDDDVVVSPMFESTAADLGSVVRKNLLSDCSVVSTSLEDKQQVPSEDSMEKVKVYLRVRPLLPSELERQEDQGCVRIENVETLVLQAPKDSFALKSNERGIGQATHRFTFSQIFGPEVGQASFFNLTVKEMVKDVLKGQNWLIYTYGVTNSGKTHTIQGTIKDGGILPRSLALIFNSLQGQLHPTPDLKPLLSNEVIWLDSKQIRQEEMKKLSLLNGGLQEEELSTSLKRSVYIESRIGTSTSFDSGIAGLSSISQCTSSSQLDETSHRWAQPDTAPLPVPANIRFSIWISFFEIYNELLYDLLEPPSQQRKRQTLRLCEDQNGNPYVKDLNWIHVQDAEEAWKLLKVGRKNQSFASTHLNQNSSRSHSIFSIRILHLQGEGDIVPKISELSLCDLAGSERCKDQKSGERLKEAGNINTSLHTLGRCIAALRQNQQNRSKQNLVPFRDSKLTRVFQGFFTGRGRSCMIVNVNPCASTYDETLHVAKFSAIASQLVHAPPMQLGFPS
The assay can be described thus: biochemical.
Conditions: not given
The method, then: All experiments were performed at room temperature using a 96-well Sunrise photometer (Tecan, Maennedorf, Switzerland) at a final volume of 100 μl per well.
Steady-state ATPase rates were measured using the pyruvate kinase/lactate dehydrogenase-linked assay in buffer A25A (25 mM potassium ACES, pH 6.9, 2 mM MgAc2, 2 mM Na-EGTA, 0.1 mM Na-EDTA, 1 mM β-mercaptoethanol) supplemented with 1 mM MgATP; 2 mM PEP; 0.25 mM NADH; 3-10 μg/ml pyruvate kinase; 3 μg/ml lactate dehydrogenase and 8 μM taxol.
The data were analyzed using Kaleidagraph 3.0 (Synergy Software, Reading, Pa.) and Microsoft Excel to obtain the kinetic variables.
When necessary, the inhibitor concentrations were adapted depending on the initial IC50 value. Experiments were performed in triplicate and averaged data points are shown with error bars±SD.
As a reminder, the IC50 is the midpoint of a concentration-inhibition curve. On to `COc1ccc2[nH]cc(/C(C#N)=C/c3ccc(OC)nc3)c2c1` [Example 52, (Z)-3-(6-methoxy-pyridin-3-yl)-2-(5-methoxy-1H-indol-3-yl)-acrylonitrile], for which the IC50 is 10 to 20 µM.
On to `COc1ccc2[nH]cc(/C(C#N)=C/c3ccc(C)nc3)c2c1` [Example 53, (Z)-2-(5-methoxy-1H-indol-3-yl)-3-(6-methylpyridin-3-yl)-acrylonitrile], for which the 50% inhibitory concentration (IC50) was below 5 µM.
Still for that read-out and setting: as for `COc1ccc2[nH]cc(/C(C#N)=C/c3ccc(C#N)nc3)c2c1` [Example 54, (Z)-5-[2-cyano-2-(5-methoxy-1H-indol-3-yl)-vinyl]-picolinonitrile], the figure is 5 to 10 µM; as for `N#C/C(=C\c1cccc(C#N)c1)c1c[nH]c2ccc(O)cc12` [Example 55, (Z)-3-[2-cyano-2-(5-hydroxy-1H-indol-3-yl)-vinyl]-benzonitrile], below 5 µM.
For the compound `NC(=O)/C(=C\c1cccnc1)c1c[nH]c2ccccc12` [Example 56, (Z)-2-(1H-indol-3-yl)-3-pyridin-3-yl-acrylamide], the IC50 is above 50 µM.
As to `C#C/C(=C\c1cccnc1)c1c[nH]c2ccc(OC)cc12` [Example 58, (E)-5-methoxy-3-(1-(pyridin-3-yl)but-1-en-3-yn-2-yl)-1H-indole], the IC50 was in the range of 5 to 10 µM.
Take `COc1ccc2[nH]cc(/C(C#N)=C(\C)c3cccnc3)c2c1` [Example 60, (Z)-2-(5-methoxy-1H-indol-3-yl)-3-(pyridin-3-yl)-but-2-enenitrile]: the IC50 was below 5 µM.
On the same count and under the same terms, the same measure for `N#C/C(=N\c1cccnc1)c1c[nH]c2ccccc12` [Example 61, (Z)-(1H-indol-3-yl)-(pyridin-3-ylimino)-acetonitrile]: below 5 µM.

Tested on in another assay: not listed separately
Nature of the assay: Activity of side products, test not stated. Conditions: side product of the synthesis.
`NC(=O)/C(=C/c1cccnc1)c1c[nH]c2ccccc12`: the activity entry is “no activity”.
Take `CCOc1ccncc1/C=C(\C#N)c1c[nH]c2ccc(OC)cc12` [Example 47b]: the activity result is listed as “no activity”.
